Test results reported in patent publication US20250296956A1, “POLYPEPTIDE, PREPARATION METHOD, AND USE THEREOF” (Hunan University, priority 2022, published 2025).
Blank lines part the entries; values can stand above or below the compound they belong to. Bridge positions count the residues as written; N and C are the ends. Ends that are not written are not given here. Peptide text beside a SMILES is read from it.

Key:
[1] = system: DU145 (human prostate cancer cells); conditions: for inhibitory effect on the proliferation of prostate cancer cells DU145: DU145, 48 hours, MTT; for effect of mutation of R9-MPF13 on the anti-proliferative effect: relative to R9-MPF13
Description: 5.2 Some of the polypeptides in Table 1 were prepared into a 10 mM mother solution with sterile pure water, and the mother solution is gradiently diluted with a basal culture medium, the diluted polypeptide solution was added to 96-well plates with DU145 cells pre-laid, 100 μL per well, and four replicates for each concentration. After 48 hours of treatment, the modified MTT kit was used to treat and measure the OD value at 580 nm, and the results were calculated and analyzed.
(§4) The experiment method includes: the polypeptide was prepared into a 10 mM mother solution with sterile pure water, and after gradient dilution with a basal culture medium, the diluted polypeptide solution was added to a 96-well plate with various cells pre-laid, 100 μL per well, and four replicates for each concentration. After 48 hours of treatment, the modified MTT kit was used to treat and measure the OD value at 580 nm, and the results are calculated and analyzed.

[2] = system: SaoS2 (human osteosarcoma cells); conditions: 48 h
Description: as §4

[3] = system: HepG2 (human hepatoblastoma cells); conditions: 48 h
Description: as §4

[4] = system: HCT116 (colorectal cancer cell line); conditions: 48 h
Description: as §4

[5] = system: A375 (human malignant melanoma); conditions: 48 h
Description: as §4

[6] = system: Hela (human anterior cervical cancer cells); conditions: 48 h
Description: as §4

[7] = system: A549 (lung cancer human alveolar basal epithelial cells); conditions: 48 h
Description: as §4

[8] = system: K562 (human chronic myeloid leukemia cells); conditions: 48 h
Description: as §4

[9] = system: OVCAR-3 (ovarian adenocarcinoma cells); conditions: 48 h
Description: as §4

PC3 cells = assay: Growth/proliferation inhibition, CCK-8 and clone formation, PC3; type: cell-based, human; conditions: for effect of inhibiting cell growth after combining with the cell-penetrating peptide R9: CCK-8, 24 hours, peptide connected with R9
Description: (§1) 5.1 Referring to FIG. 5A, the polypeptides R9, RM3, and RSM3 were prepared into a 50 mM mother solution with sterile pure water, and the mother solution was gradiently diluted with a basal culture medium, the diluted peptide solution was added to 96-well plates pre-laid with PC3 and DU145 cells, 100 μL per well, and three replicates for each concentration. After 24 h of treatment, the OD value at 450 nm was measured with a CCK-8 kit, and the results were calculated and analyzed.
(§2) FIG. 5B illustrates a clone formation experiment, the grown PC3 and DU145 cells were digested with 0.25% trypsin and the number of cells were counted, 300 cells were added to each well of the six-well plate, and 2 ml of complete culture medium was added to continue culturing for 24 hours. M3, R9, RM3, and RSM3 were added to each well and cultured for 7 days, the medium was discarded, the cells were washed, stained with crystal violet, and then microscopically photographed, and the number of the cells were counted.
(§3) Referring to FIG. 6, the above two polypeptides were prepared into a 50 mM mother solution with sterile pure water, and then gradiently diluted with a basal culture medium, the diluted peptide solution was added to a 96-well plate pre-laid with PC3 and DU145 cells, 100 μL per well, and three replicates for each concentration. After 24 hours of treatment, the OD value was measured at 450 nm using CCK-8, and the obtained values were calculated.

DU145 cells = assay: Growth/proliferation inhibition, CCK-8 and clone formation, DU145; type: cell-based, human; conditions: for effect of inhibiting cell growth after combining with the cell-penetrating peptide R9: CCK-8, 24 hours, peptide connected with R9
Description: as §1, §2, §3

METTL3 and METTL14 = METTL3 and METTL14 (Homo sapiens, UniProt Q86U44); assay: Binding to METTL3 and METTL14 proteins in vitro
METTL3 and METTL14, sequence (Q86U44 whole entry, species assumed): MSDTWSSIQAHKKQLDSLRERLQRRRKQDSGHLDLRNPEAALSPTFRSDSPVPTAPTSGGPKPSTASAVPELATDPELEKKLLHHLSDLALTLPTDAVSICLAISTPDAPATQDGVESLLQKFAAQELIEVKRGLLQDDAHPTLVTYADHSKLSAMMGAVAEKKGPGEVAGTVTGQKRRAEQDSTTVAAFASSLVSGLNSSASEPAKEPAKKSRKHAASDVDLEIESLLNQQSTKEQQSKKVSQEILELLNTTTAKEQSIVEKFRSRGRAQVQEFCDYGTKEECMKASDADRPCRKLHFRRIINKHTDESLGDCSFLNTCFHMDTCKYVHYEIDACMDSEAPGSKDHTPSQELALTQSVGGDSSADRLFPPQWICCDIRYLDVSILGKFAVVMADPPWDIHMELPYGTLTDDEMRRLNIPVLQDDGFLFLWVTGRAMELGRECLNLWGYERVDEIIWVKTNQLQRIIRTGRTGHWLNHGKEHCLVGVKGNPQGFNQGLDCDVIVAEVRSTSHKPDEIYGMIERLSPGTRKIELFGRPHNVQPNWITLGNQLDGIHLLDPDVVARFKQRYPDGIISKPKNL

[10] = Drug safety assessment in vivo, blood indexes; design: species or system C57BL/C mice; conditions: 50 mg/kg intraperitoneal once, 24 hours; for platelets (PLT) / red blood cells (RBC) / white blood cells (WBC) in the blood: compared with R9 and PBS; for white blood cells (WBC) in the blood / hemoglobin (HMGB): within the normal range
Description: Referring to FIGS. 7A to 7H, (A) drug safety assessment in vivo: C57BL/C mice raised for 7 weeks were intraperitoneally injected with a dose of 50 mg/kg (R9, RM3, RSM3) once, after 24 hours, the mice were sacrificed and the blood of the mice was taken to measure indexes such as white blood cells, platelets, red blood cells, and hemoglobin, to analyze toxicity of the drug to normal animals.

[11] = system: PC3 prostate cancer cells with high expression of METTL3; assay: Anti-tumor experiment in vivo, PC3 prostate tumor-bearing mouse model; design: species or system BALB/c nude mice; conditions: for body weight changes: tumor model mice
Description: (B) Anti-tumor experiment in vivo: a prostate tumor-bearing mouse model is selected, the specific steps to construct the animal model are as follows: PC3 prostate cancer cells with high expression of METTL3 were cultured to a logarithmic growth phase, the PC3 prostate cancer cells were digested, collected, and prepared into a cell suspension with a concentration of 1×10^7 cells/mL. 4 to 6 week-old male and female BALB/c nude mice were taken, and were injected with 100 μL of cell suspension into the back of the hind limbs, to establish a tumor model. After a diameter of the mouse tumor grows to about 0.5 cm, the mice were randomly divided into groups according to the experimental requirements: PBS, R9, RM3, RSM3, etc. Peritumoral administration is performed on the mice, once every two days, for two consecutive weeks.

RNA methylation = assay: Determination of RNA methylation (m6A) in prostate cancer cells, dot blot; type: cell-based, human; conditions: PC3 and DU145 cells, 12 hours
Description: In FIG. 3, MB is methylene blue staining, and m^6A is methylation content. 500 ng and 3000 ng are the loaded sample amounts of RNA in the experiment.

METTL3 = molecular target: T1, METTL3 (Homo sapiens, UniProt Q86U44); assay: Inhibition of METTL3 expression in prostate cancer cells, immunoblot; type: cell-based; conditions: PC3 and DU145 cells, 20 μM, 24 hours
T1 construct: endogenous in cells; host or cells: PC3 and DU145 cells
T1 sequence (Q86U44 2-580 limits assumed): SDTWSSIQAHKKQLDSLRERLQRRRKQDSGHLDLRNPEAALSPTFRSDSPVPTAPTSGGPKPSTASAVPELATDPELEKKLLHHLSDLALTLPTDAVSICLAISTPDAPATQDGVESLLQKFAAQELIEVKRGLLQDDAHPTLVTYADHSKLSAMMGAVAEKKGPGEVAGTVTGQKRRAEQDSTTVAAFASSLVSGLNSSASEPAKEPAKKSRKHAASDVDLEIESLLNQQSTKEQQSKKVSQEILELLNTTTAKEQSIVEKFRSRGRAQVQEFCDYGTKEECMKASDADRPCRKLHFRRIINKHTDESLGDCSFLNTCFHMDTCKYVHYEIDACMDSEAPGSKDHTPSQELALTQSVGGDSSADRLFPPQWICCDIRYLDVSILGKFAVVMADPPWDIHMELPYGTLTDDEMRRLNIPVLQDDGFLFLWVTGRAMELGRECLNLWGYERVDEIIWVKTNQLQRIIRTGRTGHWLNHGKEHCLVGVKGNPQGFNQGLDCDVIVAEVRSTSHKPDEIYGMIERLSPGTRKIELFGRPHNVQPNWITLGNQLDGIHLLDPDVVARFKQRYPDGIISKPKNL
Description: Referring to FIG. 4, a certain amount of polypeptide was weighed and dissolved into a 50 mM mother solution, the polypeptides R9, RM3, and RSM3 were prepared into a 50 mM mother solution with sterile pure water, after gradient dilution, the mother solution were added to a 6-well plate with PC3 and DU145 cells pre-laid, the final concentration of the polypeptide was 20 μM, 2 mL per well, and three replicates were used for each concentration. After 24 hours of treatment, the cells were lysed to extract cell proteins, and the proteins were separated by electrophoresis and transferred to a PVDF membrane, to incubate the primary antibody and secondary antibody of METTL3, and finally exposed for imaging.
In FIG. 4, GAPDH is an internal reference in the immunoblotting experiment (WB experiment).

[12] = peritumoral administration once every two days for two weeks
[13] = CCK-8 24 h, clone formation 7 days

IC50 ([1]; 48 h): < 11 µM | IC50 [2]: < 11 µM | IC50 [3]: < 11 µM | IC50 [4]: < 11 µM | IC50 [5]: < 11 µM | IC50 [6]: < 11 µM | IC50 [7]: < 11 µM | IC50 [8]: < 11 µM | IC50 [9]: < 11 µM
Compound: RRRRRRRRRRKMELGRELLNLW-NH2 (C-terminus assumed) [Polypeptide R9-RKL]
inhibitory effect on the proliferation of prostate cancer cells DU145 [1]: better inhibitory effect | effect of mutation of R9-MPF13 on the anti-proliferative effect [1]: enhance the anti-proliferative effect

Compound: RRRRRRRRRRKMELGREFLNLW [Polypeptide R9-RKF]
effect of mutation of R9-MPF13 on the anti-proliferative effect [1]: enhance the anti-proliferative effect

Compound: QLQRIIRTGRTGHWLNHG [Polypeptide M1, tested after being connected with the cell-penetrating peptide R9]
effect of inhibiting cell growth after combining with the cell-penetrating peptide R9 (PC3 cells): certain effect of inhibiting cell growth | effect of inhibiting cell growth after combining with the cell-penetrating peptide R9 (DU145 cells): certain effect of inhibiting cell growth

Compound: RRRRRRRRRRKWCLGRELLCLW (stapled peptide precursor) [Polypeptide R9-PSRKWL]
inhibitory effect on the proliferation of prostate cancer cells DU145 [1]: better inhibitory effect

Compound: RRRRRRRRRRKMELGREYLNLW [Polypeptide R9-RKY]
effect of mutation of R9-MPF13 on the anti-proliferative effect [1]: enhance the anti-proliferative effect

Compound: RRRRRRRRRRAMEEGRECLNLW [Polypeptide R9-RE]
effect of mutation of R9-MPF13 on the anti-proliferative effect [1]: weaken the anti-proliferative effect

Compound: RRRRRRRRRRKMELGREMLNLW [Polypeptide R9-RKM]
effect of mutation of R9-MPF13 on the anti-proliferative effect [1]: enhance the anti-proliferative effect

Compound: RRRRRRRRRRKWELGRELLNLW [Polypeptide R9-RKWL]
inhibitory effect on the proliferation of prostate cancer cells DU145 [1]: better inhibitory effect | effect of mutation of R9-MPF13 on the anti-proliferative effect [1]: enhance the anti-proliferative effect

binding to the proteins of METTL3 and METTL14 (METTL3 and METTL14): can bind
Compound: ELGRECLNLW [Polypeptide M3]

Compound: CSCC[C@H](NC(=O)[C@H](CS)NC(=O)[C@H](CCCNC(=N)N)NC(=O)[C@H](CCCNC(=N)N)NC(=O)[C@H](CCCNC(=N)N)NC(=O)[C@H](CCCNC(=N)N)NC(=O)[C@H](CCCNC(=N)N)NC(=O)[C@H](CCCNC(=N)N)NC(=O)[C@H](CCCNC(=N)N)NC(=O)[C@H](CCCNC(=N)N)NC(=O)[C@@H](N)CCCNC(=N)N)C(=O)N[C@@H](CCC(=O)O)C(=O)N[C@@H](CC(C)C)C(=O)NCC(=O)N[C@@H](CCCNC(=N)N)C(=O)N[C@@H](CCC(=O)O)C(=O)N[C@@H](CS)C(=O)N[C@@H](CC(C)C)C(=O)N[C@@H](CC(N)=O)C(=O)N[C@@H](CC(C)C)C(=O)N[C@@H](Cc1c[nH]c2ccccc12)C(N)=O [RM3] (H-RRRRRRRRRCMELGRECLNLW-NH2)
platelets (PLT) [10]: no significant effect | red blood cells (RBC) [10]: no significant effect | white blood cells (WBC) in the blood [10]: slightly increased this index | hemoglobin (HMGB) [10]: a certain reducing effect | body weight changes [11, 12]: no significant effect on the body weight

Compound: RSM3: stapled peptide from RM3, 10th and 17th cysteines connected through 4,4-bis(bromomethyl)biphenyl (RRRRRRRRRCMELGRECLNLW; linker 10-17 via 4,4‑bis(bromomethyl)biphenyl)
inhibition of RNA methylation (m6A) (RNA methylation): better in terms of stability and methylation inhibition effect | inhibition of RNA methylation (m6A) (RNA methylation; listed as R SM3): significantly inhibit the RNA methylation | inhibition of the expression of METTL3 (METTL3): inhibit the expression of METTL3 | inhibitory effect on the growth of prostate cancer cells (PC3 cells; [13]): good inhibitory effect | inhibitory effect on the growth of prostate cancer cells (DU145 cells; [13]): good inhibitory effect | platelets (PLT) [10]: no significant effect | red blood cells (RBC) [10]: no significant effect | white blood cells (WBC) in the blood [10]: slightly increased this index | hemoglobin (HMGB) [10]: a certain reducing effect | tumor mass ([11]; compared with R9 group and PBS, peritumoral administration once every two days for two weeks): significantly less | effect of inhibiting the growth of prostate tumors ([11]; overall comparison of the METTL3 polypeptide inhibitors): more effective | tumor volume changes [11, 12]: significantly inhibit the increase in tumor volume | body weight changes [11, 12]: no significant effect on the body weight

Compound: RRRRRRRRRRRMELGRELLNLW [Polypeptide R9-RRL]
effect of mutation of R9-MPF13 on the anti-proliferative effect [1]: enhance the anti-proliferative effect

Compound: RRRRRRRRRRAMELGRECLNLA [Polypeptide R9-RA]
effect of mutation of R9-MPF13 on the anti-proliferative effect [1]: weaken the anti-proliferative effect

Compound: FGRPHNVQ [Polypeptide M2, tested after being connected with the cell-penetrating peptide R9]
effect of inhibiting cell growth after combining with the cell-penetrating peptide R9 (PC3 cells): certain effect of inhibiting cell growth | effect of inhibiting cell growth after combining with the cell-penetrating peptide R9 (DU145 cells): certain effect of inhibiting cell growth
